Laboratory results taken from US9376506B2, “Method for producing sialic-acid-containing sugar chain” (GLYTECH, INC., priority 2011, dated 2016).
Read-outs that look alike come from different tables or passages of the source.

Assays:
[1] = Stability of CMP-Neu5Ac (CMP formation, HPLC); assay type: physicochemical; conditions: 5 mM CMP-Neu5Ac/0.1 M MOPS (pH 7.3), after 24 hours
Method: In order to confirm whether CMP was formed by the degradation of the substrate donor CMP-Neu5Ac, 5 mM CMP-Neu5Ac/0.1 M MOPS (pH 7.3) was incubated at 25° C., 30° C., 33° C., or 37° C., and the amount of CMP formed was measured. The measurement was performed by HPLC using a column TSKgel SuperQ-5PW (7.5×75 mm; Tosoh Corp.) and 50 mM KPi (pH 8.0) as a solvent. A UV detector (detection wavelength: 254 nm) was used for the detection. The degree of CMP formation was indicated by [Peak area of CMP]/[Peak area of CMP+Peak area of CMP-Neu5Ac]×100(%). After 24 hours, 45% CMP was formed at 37° C., whereas 21% CMP was formed at 30° C., which was about half of that formed at 37° C.

ST6Gal-I = target: T1, ST6Gal-I (Homo sapiens, UniProt P15907); conditions: 0.25 mM CMP, cited from earlier work
T1 sequence (P15907 1-406): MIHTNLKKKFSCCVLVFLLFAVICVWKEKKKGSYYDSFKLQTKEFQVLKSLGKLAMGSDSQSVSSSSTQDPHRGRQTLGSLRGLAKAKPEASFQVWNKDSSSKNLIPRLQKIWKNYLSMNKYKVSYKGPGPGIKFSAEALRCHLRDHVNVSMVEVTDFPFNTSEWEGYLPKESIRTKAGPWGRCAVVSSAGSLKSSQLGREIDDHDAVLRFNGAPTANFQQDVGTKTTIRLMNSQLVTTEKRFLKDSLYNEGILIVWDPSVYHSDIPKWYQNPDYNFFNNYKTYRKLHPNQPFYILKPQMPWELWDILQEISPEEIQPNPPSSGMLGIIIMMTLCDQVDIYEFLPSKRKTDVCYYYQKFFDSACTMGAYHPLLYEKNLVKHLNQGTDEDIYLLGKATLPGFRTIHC

Row | CMP formed, [Peak area of CMP]/[Peak area of CMP+Peak area of CMP-Neu5Ac]×100 ([1]; 30° C.) [%] | CMP formed, [Peak area of CMP]/[Peak area of CMP+Peak area of CMP-Neu5Ac]×100 ([1]; 37° C.) [%] | SMILES | product inhibition of ST6Gal-I by CMP (ST6Gal-I; Non Patent Literature 5) [%] | product inhibition of ST6Gal-I by CMP (ST6Gal-I; Non Patent Literature 6) [%]
1 | 21 | 45 | CC(=O)N[C@H]1[C@H]([C@H](O)[C@H](O)CO)O[C@](OP(=O)(O)OC[C@H]2O[C@@H](n3ccc(N)nc3=O)[C@H](O)[C@@H]2O)(C(=O)O)C[C@@H]1O [CMP-Neu5Ac, CMP-N-acetylneuraminic acid] |  | 
2 |  |  | Nc1ccn([C@@H]2O[C@H](COP(=O)(O)O)[C@@H](O)[C@H]2O)c(=O)n1 [CMP, cytidine monophosphate] | 49 | 71
